Measurements published in patent US20090099240A1, “METHODS FOR TREATING ENERGY METABOLISM DISORDERS BY INHIBITING FATTY ACID AMIDE HYDROLASE ACTIVITY” (N.V. Organon, priority 2006, published 2009).

Tests used:
[1] = system: APOE*3-Leiden transgenic (E3L) mice; test: Organ and tissue weights in E3L mice on high cholesterol diet
From the text: (§1) We assessed the effect of inhibiting FAAH activity on body weight, body fat, triglyceride levels, cholesterol levels in APOE*3-Leiden transgenic (E3L) mice, an animal model of hyperlipidemia. […] See van Vlijmen et al. (1994), J. Clin Invest., 93:1403-1410. Indeed, upon high fat and cholesterol feeding, these mice develop various stages of atherosclerotic lesions depending on plasma total cholesterol levels and resembling those found in humans. See Groot et al. (1996), Arterioscler. Thromb. Vasc. Biol., 16:926-933; Versch ren et al. (2005), Arterioscler. Thromb. Vasc Biol., 25:161-167; and Lutgens et al. (1999), Circulation; 99(2):276-283). Thus, the E3L mouse is a suitable model for the investigation of the efficacy of anti-atherosclerotic drugs.
(§2) E3L mice were fed a high cholesterol (1% w/w) diet (HC diet) for a period of four weeks. Animals were then matched based on their plasma cholesterol levels, and were divided into five groups, each of which was maintained on an HC diet.
(§3) Blood samples were collected at days 0, 14, and 28 of the treatment period. At the end of the treatment period, animals were sacrificed, and various tissues and organs were analyzed. Unless otherwise indicated, values are mean±standard deviation (SD).

[2] = system: APOE*3-Leiden transgenic (E3L) mice; test: Total plasma cholesterol in E3L mice; assay type: in vivo, mouse
From the text: as §1, §2, §3

[3] = system: APOE*3-Leiden transgenic (E3L) mice; test: Total plasma triglyceride levels in E3L mice; assay type: in vivo, mouse
From the text: as §1, §2, §3

[4] = system: APOE*3-Leiden transgenic (E3L) mice; test: Plasma alanine aminotransferase (ALAT) activity in E3L mice; assay type: in vivo, mouse; details: day 28
Description: as §2
Levels of plasma alanine aminotransferase (ALAT) were determined on day 28 (table 7). Plasma ALAT is a measure of hepatic stress and increases in plasma ALAT levels are often associated with liver damage. […] Thus, a reduction in plasma ALAT levels is associated with improved liver function.

[5] = system: APOE*3-Leiden transgenic (E3L) mice; test: Lipid content of liver (TLC) in E3L mice; assay type: in vivo, mouse
From the text: as §2
A reduction of Red Oil O staining in liver generally indicates reduced liver lipid content. We therefore quantified levels of lipids in livers from each animal, as described in Havekes et al. (1987), Biochem. J., 247:739-746; Delsing et al. (2005), J. Cardiovasc. Pharmacol., 45:53-60; and Post et al. (2004), ATVB, 24:768-774. Liver tissue homogenates were prepared. Lipids were extracted, dried under nitrogen, dissolved in chloroform, and spotted onto a channeled 20×20 cm silica gel thin layer chromatography (TLC) plate. Lipids were then separated, TLC plates were warmed up to visualize bands, and bands were quantified using an internal standard as reference.

[6] = system: APOE*3-Leiden transgenic (E3L) mice; test: Body weight in E3L mice on high cholesterol diet; assay type: in vivo, mouse
From the text: as §1, §2

[7] = system: APOE*3-Leiden transgenic (E3L) mice; test: Food intake per animal per day in E3L mice; assay type: in vivo, mouse
From the text: as §1, §2

[8] = system: APOE*3-Leiden transgenic (E3L) mice; test: Plasma lipoprotein profiles (size fractionation of pooled plasma) in E3L mice; assay type: in vivo, mouse; details: day 28, FIG. 1
Description: as §2
Lipoprotein profiles were determined in pooled plasma from day 28, as described in Verschuren et al. (2005), Arterioscler. Thromb. Vasc Biol., 25:161-167. An equal amount of plasma per animal was used to prepare a plasma pool for each group. Plasma lipoproteins in each plasma pool were separated by size fractionation. Typically, VLDL, IDL/LDL and HDL lipoproteins are eluted in fractions 4-8, fractions 11-16 and fractions 17-20, respectively.

[9] = system: APOE*3-Leiden transgenic (E3L) mice; test: Oil Red O staining of liver sections (steatosis) in E3L mice; assay type: in vivo, mouse
From the text: as §2
In order to examine cellular stress in the liver due to lipid storage (steatosis), we stained frozen liver tissue sections with Oil Red O a fat-soluble diazo dye used to stain for lipids. Digital photomicrographs of liver cross sections were taken for each individual animal (magnification: 20 fold). […]

[10] = system: APOE*3-Leiden transgenic (E3L) mice; test: Plasma leptin ELISA in E3L mice; assay type: in vivo, mouse
From the text: as §2
Accordingly, we quantified plasma leptin levels after a four hour fasting period at treatment time points 0, 14, and 28 days using a mouse-specific leptin ELISA or (kit number MOB00 from R&D Systems, Minneapolis, Minn.) according to the guidelines and protocol specified by the manufacturer.

[11] = system: APOE*3-Leiden transgenic (E3L) mice; test: Plasma adiponectin ELISA in E3L mice; assay type: in vivo, mouse
From the text: as §2
We determined plasma adiponectin levels after a four hour fasting period at 0, 14, 28 days, using a mouse-specific adiponectin/Acrp30 ELISA (kit number MRP300 from R&D Systems, Minneapolis, Minn.).

[12] = system: APOE*3-Leiden transgenic (E3L) mice; test: Plasma ketone body (D-3-hydroxybutyrate) levels in E3L mice; assay type: in vivo, mouse
From the text: as §2
We quantified plasma D-3-hydroxybutyrate (b-HBA; ketone bodies) levels were quantified in plasma samples obtained after a 4-hour fasting period at time points t=0, t=2, and t=4 weeks using kits #2940 (b-HBA reagent set) and #2947 (b-HBA control set)) according to the guidelines and protocol specified by the manufacturer (Instruchemie, Delfzijl, The Netherlands).

[13] = E3L mice, HC diet, end of four-week treatment, mean ± SD

CC(C)OC(=O)C(C)(C)Oc1ccc(C(=O)c2ccc(Cl)cc2)cc1 [Fenofibrate, fenofibrate]
Organ and Tissue Weights: Fat (gonadal fat) [1, 13]: 0.48 ± 0.14 g | Organ and Tissue Weights: Heart [1, 13]: 0.14 ± 0.02 g | Organ and Tissue Weights: Liver [1, 13]: ^#1.77 ± 0.28^ g | Organ and Tissue Weights: Lung [1, 13]: 0.21 ± 0.05 g | liver weight, in words ([1]; relative to its control group): significant increase | Total Plasma Cholesterol ([2]; day 0): 13.6 ± 4.2 mM | Total Plasma Cholesterol ([2]; day 14): *6.5 ± 1.0 mM | Total Plasma Cholesterol ([2]; day 28): *6.2 ± 1.3 mM | Total Plasma Triglyceride Levels ([3]; day 0): 1.6 ± 0.4 mM | Total Plasma Triglyceride Levels ([3]; day 14): ^#*0.7 ± 0.2 mM | Total Plasma Triglyceride Levels ([3]; day 28): ^#*0.7 ± 0.2 mM | Plasma Alanine Amino Transferase Activity [4]: 112.5 ± 10.4 U/L | Lipid Content of Liver: Cholesterol Esters ([5]; end of four-week treatment): 44 ± 6 | Lipid Content of Liver: Free Cholesterol ([5]; end of four-week treatment): 21 ± 2

CCCCCCCC/C=C\CCCCCCCC(=O)NCCO [OEA, oleoylethanolamide]
Organ and Tissue Weights: Fat (gonadal fat) [1, 13]: *0.24 ± 0.06 g | Organ and Tissue Weights: Brain ([1]; mouse, in vivo): 0.44 ± 0.02 g | Organ and Tissue Weights: Heart ([1]; mouse, in vivo): 0.14 ± 0.01 g | Organ and Tissue Weights: Liver ([1]; mouse, in vivo): 0.91 ± 0.16 g | Organ and Tissue Weights: Lung ([1]; mouse, in vivo): 0.19 ± 0.02 g | gonadal fat weight, in words ([1]; relative to the oral vehicle group): significantly lower | body weights, in words ([6]; last time point (4 weeks), within group): significantly reduced | Body Weight ([6]; week 0): 22.3 ± 1.3 g | Body Weight ([6]; week 0.5): 22.5 ± 1.0 g | Body Weight ([6]; week 1): 22.6 ± 1.0 g | Body Weight ([6]; week 1.5): 21.8 ± 1.1 g | Body Weight ([6]; week 2): 21.9 ± 1.2 g | Body Weight ([6]; week 2.5): 21.9 ± 1.3 g | Body Weight ([6]; week 3): *21.6 ± 1.1 g | Body Weight ([6]; week 3.5): *21.3 ± 1.2 g | Body Weight ([6]; week 4): *21.4 ± 1.2 g | Food Intake Per Animal Per Day ([7]; interval 0-0.5 weeks): 2.5 ± 0.05 g | Food Intake Per Animal Per Day ([7]; interval 0.5-1.0 weeks): 2.3 ± 0.04 g | Food Intake Per Animal Per Day ([7]; interval 1.0-1.5 weeks): 2.4 ± 0.1 g | Food Intake Per Animal Per Day ([7]; interval 1.5-2.0 weeks): 2.4 ± 0.1 g | Food Intake Per Animal Per Day ([7]; interval 2.0-2.5 weeks): 2.3 ± 0.1 g | Food Intake Per Animal Per Day ([7]; interval 2.5-3.0 weeks): 2.3 ± 0.05 g | Food Intake Per Animal Per Day ([7]; interval 3.0-3.5 weeks): 2.3 ± 0.1 g | Food Intake Per Animal Per Day ([7]; interval 3.5-4.0 weeks): *2.0 ± 0.1 g | Food Intake Per Animal Per Day ([7]; interval run-in): 2.5 ± 0.5 g | food intake, in words ([7]; last time point): slight, but significant, decrease | Total Plasma Cholesterol ([2]; day 0): 13.9 ± 3.4 mM | Total Plasma Cholesterol ([2]; day 14): ^#16.0 ± 2.9 mM | Total Plasma Cholesterol ([2]; day 28): ^#15.8 ± 2.7 mM | total plasma cholesterol levels, in words ([2]; days 14 and 28, relative to respective control group): slightly and significantly increased | IDL/LDL particle size, in words [8]: slight shift toward larger IDL/LDL particles | VLDL fraction of plasma lipoprotein profile, in words [8]: increase | Total Plasma Triglyceride Levels ([3]; day 0): 1.5 ± 0.4 mM | Total Plasma Triglyceride Levels ([3]; day 14): 1.7 ± 0.6 mM | Total Plasma Triglyceride Levels ([3]; day 28): *1.3 ± 0.3 mM | total plasma triglyceride levels, in words ([3]; relative to respective control group): slightly decreased | Plasma Alanine Amino Transferase Activity [4]: *68.6 ± 17.6 U/L | steatotic (Oil Red O) staining in liver, in words ([9]; compared to the control vehicle group): small, but significant reduction | Oil Red O Staining in Liver, Mild-Severe (above 115 relative units) ([9]; end of four-week treatment): *36 ± 5 % of cross-sectional area | Oil Red O Staining in Liver, Severe (above 175 relative units) ([9]; end of four-week treatment): *8 ± 2 % of cross-sectional area | liver cholesterol esters (CE), in words ([5]; compared to the oral vehicle group): significantly increased | Lipid Content of Liver: Cholesterol Esters ([5]; end of four-week treatment): ^#61 ± 7 ^ | Lipid Content of Liver: Free Cholesterol ([5]; end of four-week treatment): 21 ± 2 | Lipid Content of Liver: Triglycerides ([5]; end of four-week treatment): 94 ± 11 | plasma leptin levels, in words ([10]; at 14 days, relative to the oral vehicle control group): lower | Plasma Leptin Levels ([10]; day 0, four hour fasting): 4.7 ± 2.3 ng/mL | Plasma Leptin Levels ([10]; day 14, four hour fasting): ^#7.3 ± 3.1^ ng/ml | Plasma Leptin Levels ([10]; day 28, four hour fasting): 6.1 ± 4.6 ng/mL | Plasma Adiponectin Levels ([11]; day 0, four hour fasting): 12.9 ± 2.8 µg/mL | Plasma Adiponectin Levels ([11]; day 14, four hour fasting): 11.3 ± 3.5 µg/mL | Plasma Adiponectin Levels ([11]; day 28, four hour fasting): 11.4 ± 2 µg/mL | plasma HB levels, in words ([12]; at 28 days, compared to the oral vehicle control group): significantly lower | Plasma Ketone Body (HB) levels ([12]; day 0, 4-hour fasting): 0.79 ± 0.19 mM | Plasma Ketone Body (HB) levels ([12]; day 14, 4-hour fasting): 0.23 ± 0.09 mM | Plasma Ketone Body (HB) levels ([12]; day 28, 4-hour fasting): ^#0.38 ± 0.10^ mM
